This passage reports IC50, AC50 and EC50 results from ChEMBL document CHEMBL1201862, “PubChem BioAssay data set” (2004).

In one experiment the target is T1, Leucine aminopeptidase (Plasmodium falciparum 3D7, UniProt Q8IL11).
T1 sequence (Q8IL11 whole entry): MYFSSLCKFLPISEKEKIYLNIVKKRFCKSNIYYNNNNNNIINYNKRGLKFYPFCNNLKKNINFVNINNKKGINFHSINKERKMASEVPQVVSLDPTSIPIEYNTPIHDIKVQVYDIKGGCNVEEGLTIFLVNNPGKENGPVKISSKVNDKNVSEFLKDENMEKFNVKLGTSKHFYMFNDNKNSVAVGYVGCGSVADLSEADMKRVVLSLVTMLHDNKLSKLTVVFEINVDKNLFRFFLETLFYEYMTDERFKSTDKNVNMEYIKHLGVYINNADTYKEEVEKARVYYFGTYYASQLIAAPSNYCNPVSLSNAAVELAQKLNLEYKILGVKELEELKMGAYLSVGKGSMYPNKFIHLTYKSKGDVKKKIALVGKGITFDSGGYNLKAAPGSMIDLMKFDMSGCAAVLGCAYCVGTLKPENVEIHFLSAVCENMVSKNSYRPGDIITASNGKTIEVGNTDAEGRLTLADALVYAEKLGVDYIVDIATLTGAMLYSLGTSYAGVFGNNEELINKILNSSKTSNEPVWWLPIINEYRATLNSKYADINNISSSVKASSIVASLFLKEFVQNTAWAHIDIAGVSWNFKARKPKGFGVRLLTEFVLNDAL
In words: P. falciparum M17LAP inhibitors, primary screen, biochemical, fluorogenic H-Leu-NHMec substrate, 1536-well (AID 1619). It counts as functional.

A further experiment has as its target Genome polyprotein (dengue virus type 2, UniProt P29990). In words: Dengue-2 NS5 methyltransferase inhibitors, primary screen, biochemical, confirmation dose response (AID 588689). In kind it is functional.
In the next experiment the target is T2, Coagulation factor XII (Homo sapiens, UniProt P00748).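 Note: activated factor XIIa alpha cleaving a fluorogenic AMC peptide substrate; inhibitor potency from loss of enzyme activity.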
T2 sequence (P00748 whole entry): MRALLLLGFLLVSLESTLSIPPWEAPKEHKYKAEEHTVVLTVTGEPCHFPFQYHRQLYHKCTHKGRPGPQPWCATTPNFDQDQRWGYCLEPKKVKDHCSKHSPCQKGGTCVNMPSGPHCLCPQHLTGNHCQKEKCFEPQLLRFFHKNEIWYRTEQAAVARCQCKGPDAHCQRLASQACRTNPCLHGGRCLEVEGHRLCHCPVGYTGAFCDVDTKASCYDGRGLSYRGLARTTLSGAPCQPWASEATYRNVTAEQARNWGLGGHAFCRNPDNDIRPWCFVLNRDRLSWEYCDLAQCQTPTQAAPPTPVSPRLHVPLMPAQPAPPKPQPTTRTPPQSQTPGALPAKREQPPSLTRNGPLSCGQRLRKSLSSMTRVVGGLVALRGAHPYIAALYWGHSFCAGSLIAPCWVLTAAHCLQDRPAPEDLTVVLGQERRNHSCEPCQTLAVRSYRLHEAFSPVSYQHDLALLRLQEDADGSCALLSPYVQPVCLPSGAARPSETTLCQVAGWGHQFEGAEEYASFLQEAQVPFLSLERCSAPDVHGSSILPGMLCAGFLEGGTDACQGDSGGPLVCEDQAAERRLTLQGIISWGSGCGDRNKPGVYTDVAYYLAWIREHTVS
It counts as functional.

A short description of experiment [1]: Shn3 3'UTR reporter inhibitors, dose response, cell-based, Clone20 osteoblasts, firefly luciferase, cherry-picked (AID 624132).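 Note: firefly luciferase luminescence from reporter carrying the Shn3 3'UTR in osteoblasts.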 It counts as functional.
For the next experiment, the target named is Cytochrome P450 2C19 (Homo sapiens, UniProt P33261). In words: Cytochrome panel assay with activity outcomes. Panel member name: p450-cyp2c19 Compounds with AC50 equal or less than 10 uM are considered active. In kind it is functional. The following applies: read-out: AC50.
Cytochrome P450 2C19, sequence (P33261 whole entry): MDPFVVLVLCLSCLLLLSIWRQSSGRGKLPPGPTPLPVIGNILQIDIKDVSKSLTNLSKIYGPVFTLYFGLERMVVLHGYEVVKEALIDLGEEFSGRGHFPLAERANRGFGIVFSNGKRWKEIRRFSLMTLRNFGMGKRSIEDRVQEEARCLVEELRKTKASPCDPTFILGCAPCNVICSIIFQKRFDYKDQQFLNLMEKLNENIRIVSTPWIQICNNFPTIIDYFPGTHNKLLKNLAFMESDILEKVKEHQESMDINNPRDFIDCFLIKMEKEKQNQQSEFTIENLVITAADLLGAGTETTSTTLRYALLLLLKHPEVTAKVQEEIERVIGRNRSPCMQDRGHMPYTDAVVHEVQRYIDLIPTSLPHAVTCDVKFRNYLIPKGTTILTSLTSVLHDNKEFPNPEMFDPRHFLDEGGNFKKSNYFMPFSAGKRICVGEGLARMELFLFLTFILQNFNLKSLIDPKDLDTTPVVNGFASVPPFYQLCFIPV
The next experiment concerns the target Cytochrome P450 2C9 (Homo sapiens, UniProt P11712).
For another experiment, the target named is Paired box protein Pax-8 (Homo sapiens, UniProt Q06710). In words: inhibitors of PAX8-driven TPO luciferase reporter, dose response, RMG-I cells, cherry-pick (AID 687027).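 Note: luciferase reporter driven by Pax8 target thyroperoxidase promoter measured by SteadyGlo luminescence.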 In kind it is functional, cell-based.
Paired box protein Pax-8, sequence (Q06710 whole entry): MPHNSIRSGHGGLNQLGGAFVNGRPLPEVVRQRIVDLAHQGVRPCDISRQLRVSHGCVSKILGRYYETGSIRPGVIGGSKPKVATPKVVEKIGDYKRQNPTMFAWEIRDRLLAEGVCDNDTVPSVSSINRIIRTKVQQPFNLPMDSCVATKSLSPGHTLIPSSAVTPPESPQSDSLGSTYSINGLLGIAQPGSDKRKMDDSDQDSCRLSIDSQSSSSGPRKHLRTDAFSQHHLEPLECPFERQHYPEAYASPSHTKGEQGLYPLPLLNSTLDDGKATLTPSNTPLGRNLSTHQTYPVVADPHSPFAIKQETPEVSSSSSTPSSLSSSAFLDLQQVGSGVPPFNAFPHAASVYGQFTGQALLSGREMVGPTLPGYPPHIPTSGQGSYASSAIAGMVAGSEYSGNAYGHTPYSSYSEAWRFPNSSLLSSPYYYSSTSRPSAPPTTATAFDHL
The nature of experiment [2]: NIH:OVCAR-3 ovarian cancer cell cytotoxicity, dose response, PAX8 inhibitor project, plate reader, dry powder samples (AID 743044). In kind it is functional, cell-based.
Experiment [3] in a line: cytotoxicity in OVCAR8 ovarian cancer cells, dose response, PAX8 project, cell-based, plate reader, dry powder samples (AID 743197). It counts as functional. The following applies: OVCAR-8.
Experiment [4] has as its target T3, Replicative DNA helicase DnaB (Mycobacterium tuberculosis, UniProt P9WMR3).
T3 sequence (P9WMR3 whole entry): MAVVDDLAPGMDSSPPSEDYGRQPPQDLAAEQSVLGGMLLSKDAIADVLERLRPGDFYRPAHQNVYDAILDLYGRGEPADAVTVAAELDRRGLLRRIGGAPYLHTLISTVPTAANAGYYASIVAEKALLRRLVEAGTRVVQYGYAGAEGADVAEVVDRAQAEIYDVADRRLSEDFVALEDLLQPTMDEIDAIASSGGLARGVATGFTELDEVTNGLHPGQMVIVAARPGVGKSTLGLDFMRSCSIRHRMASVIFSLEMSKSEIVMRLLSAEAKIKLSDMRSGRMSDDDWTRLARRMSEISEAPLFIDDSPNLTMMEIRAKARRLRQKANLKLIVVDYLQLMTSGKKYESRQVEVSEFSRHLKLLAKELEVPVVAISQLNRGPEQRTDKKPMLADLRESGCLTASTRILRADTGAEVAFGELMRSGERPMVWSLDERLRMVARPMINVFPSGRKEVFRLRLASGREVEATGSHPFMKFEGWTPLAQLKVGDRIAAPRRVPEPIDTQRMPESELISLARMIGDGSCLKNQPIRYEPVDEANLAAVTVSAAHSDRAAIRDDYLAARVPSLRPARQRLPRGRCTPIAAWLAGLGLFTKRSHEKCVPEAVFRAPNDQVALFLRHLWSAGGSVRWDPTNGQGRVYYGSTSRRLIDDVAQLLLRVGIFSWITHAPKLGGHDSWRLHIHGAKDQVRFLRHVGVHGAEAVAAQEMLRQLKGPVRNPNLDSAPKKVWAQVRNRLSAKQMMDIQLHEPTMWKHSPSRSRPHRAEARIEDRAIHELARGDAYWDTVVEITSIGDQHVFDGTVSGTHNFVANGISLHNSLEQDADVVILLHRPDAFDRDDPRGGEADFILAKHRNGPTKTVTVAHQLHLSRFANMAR
In words: DnaB intein splicing inhibitors, dose response, biochemical, cell-free fluorescence (AID 449749). It counts as functional.

In the next experiment the target is T4, Protein RecA (Mycobacterium tuberculosis, UniProt P9WHJ3).
T4 sequence (P9WHJ3 whole entry): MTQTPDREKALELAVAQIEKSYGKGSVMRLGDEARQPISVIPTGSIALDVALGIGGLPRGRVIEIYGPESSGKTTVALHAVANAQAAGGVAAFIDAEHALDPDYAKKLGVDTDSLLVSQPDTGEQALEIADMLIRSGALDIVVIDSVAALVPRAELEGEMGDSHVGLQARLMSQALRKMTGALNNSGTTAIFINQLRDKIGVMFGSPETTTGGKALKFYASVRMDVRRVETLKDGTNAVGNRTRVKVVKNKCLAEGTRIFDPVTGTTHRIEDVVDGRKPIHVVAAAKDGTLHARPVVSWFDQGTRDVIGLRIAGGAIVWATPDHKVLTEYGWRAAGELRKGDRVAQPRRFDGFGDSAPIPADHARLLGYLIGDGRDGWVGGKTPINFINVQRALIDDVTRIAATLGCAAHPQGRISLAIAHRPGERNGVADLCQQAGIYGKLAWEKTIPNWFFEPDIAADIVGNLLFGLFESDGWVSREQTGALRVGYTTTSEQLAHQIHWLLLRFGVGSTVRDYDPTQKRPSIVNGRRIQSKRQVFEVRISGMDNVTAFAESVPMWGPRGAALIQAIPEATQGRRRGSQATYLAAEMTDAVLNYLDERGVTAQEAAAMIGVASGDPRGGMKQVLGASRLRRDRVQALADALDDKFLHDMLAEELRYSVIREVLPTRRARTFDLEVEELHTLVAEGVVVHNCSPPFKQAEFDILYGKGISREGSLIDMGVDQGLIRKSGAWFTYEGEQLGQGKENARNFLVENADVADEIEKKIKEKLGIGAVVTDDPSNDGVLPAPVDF
In words: Fluorescence Cell-Free Homogeneous Dose Retest to Identify Inhibitors of RecA-Intein Splicing Activity. [Related pubchem assays (depositor defined):AID2097, AID2223, AID489010, AID492950]. It counts as functional.

The source made the active and inactive calls.

Genome polyprotein, sequence (P29990 2492-3391 limits assumed): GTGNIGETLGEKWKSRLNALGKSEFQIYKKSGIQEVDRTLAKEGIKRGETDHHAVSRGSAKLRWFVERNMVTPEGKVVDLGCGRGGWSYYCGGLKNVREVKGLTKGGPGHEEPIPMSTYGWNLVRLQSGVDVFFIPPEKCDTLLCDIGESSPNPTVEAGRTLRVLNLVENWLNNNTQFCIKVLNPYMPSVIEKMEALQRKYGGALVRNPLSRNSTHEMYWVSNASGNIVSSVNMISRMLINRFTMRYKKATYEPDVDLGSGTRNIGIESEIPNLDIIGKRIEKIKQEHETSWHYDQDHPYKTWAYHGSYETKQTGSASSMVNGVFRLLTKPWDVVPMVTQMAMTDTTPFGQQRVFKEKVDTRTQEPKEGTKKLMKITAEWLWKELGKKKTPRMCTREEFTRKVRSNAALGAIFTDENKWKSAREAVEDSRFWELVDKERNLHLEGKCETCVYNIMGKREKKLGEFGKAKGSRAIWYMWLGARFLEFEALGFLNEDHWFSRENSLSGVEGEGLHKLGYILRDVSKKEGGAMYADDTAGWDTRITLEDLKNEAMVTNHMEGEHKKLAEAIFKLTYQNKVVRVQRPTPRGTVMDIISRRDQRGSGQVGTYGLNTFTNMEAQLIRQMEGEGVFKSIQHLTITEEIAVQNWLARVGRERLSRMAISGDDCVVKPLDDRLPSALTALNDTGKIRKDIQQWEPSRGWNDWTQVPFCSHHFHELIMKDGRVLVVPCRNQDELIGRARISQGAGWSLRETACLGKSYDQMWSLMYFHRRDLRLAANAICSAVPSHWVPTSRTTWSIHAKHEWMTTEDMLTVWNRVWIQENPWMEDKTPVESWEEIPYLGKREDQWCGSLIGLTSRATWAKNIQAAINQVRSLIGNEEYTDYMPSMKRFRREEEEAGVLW
Cytochrome P450 2C9, sequence (P11712 whole entry): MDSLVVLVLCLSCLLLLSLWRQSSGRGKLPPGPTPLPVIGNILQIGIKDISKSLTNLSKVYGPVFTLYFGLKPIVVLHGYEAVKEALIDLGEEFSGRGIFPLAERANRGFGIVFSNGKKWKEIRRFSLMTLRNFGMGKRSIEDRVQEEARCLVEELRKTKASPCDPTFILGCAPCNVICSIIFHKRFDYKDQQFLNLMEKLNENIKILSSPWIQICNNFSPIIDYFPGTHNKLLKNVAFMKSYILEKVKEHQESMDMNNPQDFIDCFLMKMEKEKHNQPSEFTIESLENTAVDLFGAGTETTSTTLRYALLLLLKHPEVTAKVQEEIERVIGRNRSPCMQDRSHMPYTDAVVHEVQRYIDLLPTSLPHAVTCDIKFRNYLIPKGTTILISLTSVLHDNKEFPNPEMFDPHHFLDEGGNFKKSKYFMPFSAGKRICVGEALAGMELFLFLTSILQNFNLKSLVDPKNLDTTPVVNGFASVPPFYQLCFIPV

On to `CCOc1ccc(NC(=O)CN2C(=O)C3CC=CCC3C2=O)cc1` (stereo not drawn), for which the IC50 at Leucine aminopeptidase is 3.86 µM (active).

For `C/C(CC1CC(C)(C)OC1=O)=N/Nc1nc(-c2ccccc2)cs1` (stereo not drawn), the IC50 at Leucine aminopeptidase is 52.8 µM (active).

As for `CC1=NN(c2ccccc2)C(=O)C1=Cc1ccccc1`, the IC50 on Genome polyprotein is 59.4 µM (active).

With `O=C(NC(Cc1ccc2c(c1)OCO2)C(=O)NC(Cc1ccccc1)C(=O)O)c1ccccc1` (stereo not drawn), at Leucine aminopeptidase, the IC50 is 19.7 µM (active).

In the case of `C=CCOC(=O)C1=C(C)N=C2SCCC(=O)N2C1c1cccs1` (stereo not drawn), the IC50 on Coagulation factor XII is > 50 µM (inactive). Further, the AC50 in experiment [1] is > 70 µM (inactive).

Take `COc1cc(C)c(S(=O)(=O)NCc2cccs2)cc1C`: the IC50 at Coagulation factor XII is > 50 µM (inactive).

Consider `O=C(O)CC(=O)Nc1ccccc1C(=O)O`, for which the IC50 at Coagulation factor XII was > 50 µM (inactive).

For the compound `CCC(C)[C@H](NC(=O)Nc1ccc(Oc2ccccc2)cc1)C(=O)O` (stereo partly drawn), the IC50 on Leucine aminopeptidase is 21.8 µM (active). For the same compound, the AC50 was 5.62 µM (inconclusive) on Cytochrome P450 2C19 and 8.91 µM (inconclusive) at Cytochrome P450 2C9.

Take `Cc1cc(C)c(C#N)c(SCC(O)CS(=O)(=O)Cc2ccccc2)n1` (stereo not drawn): the IC50 on Leucine aminopeptidase was 31.5 µM (active).

Regarding `O=Cc1ccc(OCC(=O)Nc2ccccc2C(F)(F)F)cc1`, the IC50 at Coagulation factor XII was > 50 µM (inactive).

Regarding `C[C@H]1CCCCO[C@H](CN(C)Cc2ccc(C(F)(F)F)cc2)[C@@H](C)CN([C@@H](C)CO)C(=O)c2cc(NS(=O)(=O)c3ccc(F)cc3)ccc2O1`, the AC50 at Paired box protein Pax-8 is 9.73 µM (active); in experiment [2] it was 44.9 µM (active); in [3] it was 43.6 µM (active).

As for `c1csc(-c2nc3ccccc3[nH]2)c1`, the IC50 at Coagulation factor XII is > 50 µM (inactive).

In the case of `CCN(CCCNc1cc2c(c(N)c1S(=O)(=O)O)C(=O)c1ccccc1C2=O)c1ccccc1`, at Genome polyprotein, the IC50 is 31.6 µM (active).

For the compound `COc1cccc2sc(/N=C/N(C)C)nc12`, the IC50 at Coagulation factor XII is > 50 µM (inactive).

For `COc1ccc(Cl)cc1/C=C1/C(=O)ON=C1C`, the IC50 at Genome polyprotein is > 100 µM (active).

As to `CCOC(=O)CC1=NN(c2ccccc2)C(=O)/C1=C\c1ccc(OC)cc1OC`, in experiment [4], the AC50 was 0.805 µM (active). Further, at Protein RecA, the EC50 is 0.104 µM (active). Moreover, at Genome polyprotein, the IC50 is 27.1 µM (active).
